Eleven molecules from US7531482B2, “Thieno-pyrimidine compounds having fungicidal activity” (Dow AgroSciences LLC, priority 2005, dated 2009) can be followed below.

Structures are written as SMILES.

Format in all cases: in vivo
The subject of experiment [1] is Mycosphaerella graminicola=Septoria tritici. As to the kind of experiment: Speckled Leaf Blotch of Wheat (SEPTTR) whole-plant disease control test. The settings on record: Mycosphaerella, foliar, 75 ppm applied to foliage of wheat; read-out: SEPTTR disease control.
The subject of experiment [2] is Puccinia recondita tritici. Put plainly: Leaf Rust of Wheat (PUCCRT) whole-plant disease control test. The conditions noted are these: Puccinia recondita, foliar, 200 ppm applied to foliage of wheat; inoculated one day after treatment; read-out: PUCCRT disease control.
For experiment [3], the system named is Colletotricum lagenarium. As to the kind of experiment: Cucumber Anthracnose (COLLLA) whole-plant disease control test. The conditions noted are these: Cucumis sativus, foliar; 200 ppm applied to foliage of cucumber; inoculated one day after treatment; read-out: COLLLA disease control.
The test system of experiment [4] is Leptosphaeria nodorum. Put plainly: Glume Blotch of Wheat (LEPTNO) whole-plant disease control test. The settings on record: Parastagonospora nodorum, foliar; for pest or weed control at 200 ppm: 200 ppm applied to foliage of wheat, inoculated one day after treatment, read-out: LEPTNO disease control.
Experiment [5] concerns Erysiphe cichoracaerum. Put plainly: Cucumber Powdery Mildew (ERYSCI) whole-plant disease control test. The conditions noted are these: Erysiphe, foliar; 200 ppm applied to foliage of cucumber; inoculated one day after treatment; read-out: ERYSCI disease control.
The test system of experiment [6] is Phytophthora infestans. Put plainly: whole plant or invertebrate. The settings on record: Phytophthora infestans, in Solanum lycopersicum, foliar, read-out: PHYTIN disease control, 200 ppm applied to foliage of tomato; inoculated one day after treatment.
Experiment [7] deals with Magnaporthe grisea=Pyricularia oryzae. Put plainly: whole plant or invertebrate. The conditions noted are these: Pyricularia oryzae, foliar; for pest or weed control at 200 ppm: read-out: PYRIOR disease control, 200 ppm applied to foliage of rice, inoculated one day after treatment.

Consider `N#Cc1ncc(F)cc1Oc1ccc(CCNc2ncnc3scc(Cl)c23)cc1` [Compound 29], for which the pest or weed control at 75 ppm in experiment [1] fell in the range of 50 to 79%. The pest or weed control at 200 ppm in experiment [2] was in the range of 80 to 100%; in experiment [3], 50 to 79%; in experiment [4], 0 to 49%; in experiment [5] it was 0 to 49%; in experiment [6] it was 0 to 49%; in experiment [7], 50 to 79%.
As to `Fc1nc(F)c(F)c(Oc2ccc(CCNc3ncnc4scc(Cl)c34)cc2)c1F` [Compound 110], the pest or weed control at 75 ppm in experiment [1] lay within 50 to 79%; in experiment [4] (75 ppm (footnote b), wheat foliage), 50 to 79%. Moreover, the pest or weed control at 200 ppm in experiment [2] was in the range of 80 to 100%; in experiment [3] it was 50 to 79%; in experiment [5] it was 80 to 100%; in experiment [6] it was 0 to 49%. For the same molecule, the pest or weed control at 8.3 ppm in experiment [7] (read-out: PYRIOR disease control, 8.3 ppm (footnote c), rice foliage) was 80 to 100%.
Consider `CCc1ncnc(Oc2ccc(CCNc3ncnc4scc(Cl)c34)cc2)c1Cl` [Compound 52], for which the pest or weed control at 75 ppm in experiment [1] was in the range of 80 to 100%. The pest or weed control at 200 ppm in experiment [2] lay in the range of 80 to 100%; in experiment [3] it was 50 to 79%; in experiment [4] it was 50 to 79%; in experiment [5] it was 50 to 79%; in experiment [6] it was 0 to 49%; in experiment [7] it was 80 to 100%.
For `Clc1csc2ncnc(NCCc3ccc(Oc4cccc(-n5cccn5)n4)cc3)c12` [Compound 89], the pest or weed control at 75 ppm in experiment [1] is 50 to 79%. Also, the pest or weed control at 200 ppm in experiment [2] was in the range of 80 to 100%; in experiment [3] it was 0 to 49%; in experiment [4], 80 to 100%; in experiment [5], 80 to 100%; in experiment [6], 0 to 49%; in experiment [7], 80 to 100%.
Turning to `CS(=O)(=O)c1cccc(Oc2ccc(CCNc3ncnc4scc(Cl)c34)cc2)n1` [Compound 91], the pest or weed control at 75 ppm in experiment [1] is 0 to 49%. The pest or weed control at 200 ppm in experiment [2] fell in the range of 80 to 100%; in experiment [3], 0 to 49%; in experiment [4], 80 to 100%; in experiment [5], 50 to 79%; in experiment [6], 80 to 100%; in experiment [7], 80 to 100%.
Turning to `Clc1csc2ncnc(NCCc3ccc(Oc4cc(I)ccn4)cc3)c12` [Compound 43], in experiment [1], the pest or weed control at 75 ppm was in the range of 80 to 100%. Besides, the pest or weed control at 200 ppm was in the range of 80 to 100% in experiment [2]; 50 to 79% in experiment [3]; 80 to 100% in experiment [4]; 80 to 100% in experiment [5]; 0 to 49% in experiment [6]; 80 to 100% in experiment [7].
As for `CC(=O)c1cnc(Oc2ccc(CCNc3ncnc4scc(Cl)c34)cc2)s1` [Compound 46], the pest or weed control at 75 ppm in experiment [1] fell in the range of 50 to 79%. The pest or weed control at 200 ppm in experiment [2] was 80 to 100%; in experiment [3] it was 0 to 49%; in experiment [4], 0 to 49%; in experiment [5] it was 0 to 49%; in experiment [6] it was 0 to 49%; in experiment [7] it was 50 to 79%.
With `N#Cc1c(Cl)cncc1Oc1ccc(CCNc2ncnc3scc(Cl)c23)cc1` [Compound 71], in experiment [1], the pest or weed control at 75 ppm was in the range of 80 to 100%. In addition, the pest or weed control at 200 ppm in experiment [2] was 80 to 100%; in experiment [3], 80 to 100%; in experiment [4], 80 to 100%; in experiment [5], 50 to 79%; in experiment [6], 0 to 49%; in experiment [7] it was 80 to 100%.
As for `COc1cc(C#N)cc(Oc2ccc(CCNc3ncnc4scc(Cl)c34)cc2)n1` [Compound 81], the pest or weed control at 75 ppm in experiment [1] lay within 50 to 79%. For the same molecule, the pest or weed control at 200 ppm lay in the range of 80 to 100% in experiment [2]; 50 to 79% in experiment [3]; 80 to 100% in experiment [4]; 50 to 79% in experiment [5]; 0 to 49% in experiment [6]; 80 to 100% in experiment [7].
As for `N#Cc1cccc(Oc2ccc(CCNc3ncnc4scc(Cl)c34)cc2)n1` [Compound 32], the pest or weed control at 75 ppm in experiment [1] was in the range of 50 to 79%. Besides, the pest or weed control at 200 ppm in experiment [2] lay within 80 to 100%; in experiment [3], 50 to 79%; in experiment [4], 0 to 49%; in experiment [5], 80 to 100%; in experiment [6] it was 50 to 79%; in experiment [7], 80 to 100%.
On to `N#Cc1nc(Cl)ccc1Oc1ccc(CCNc2ncnc3scc(Cl)c23)cc1` [Compound 58], for which the pest or weed control at 75 ppm in experiment [1] fell in the range of 50 to 79%. The pest or weed control at 200 ppm lay within 80 to 100% in experiment [2]; 0 to 49% in experiment [3]; 50 to 79% in experiment [4]; 0 to 49% in experiment [5]; 0 to 49% in experiment [6]; 80 to 100% in experiment [7].
